Measured values from US8618098B2, “Inhibitors of bruton's tyrosine kinase” (Roche Palo Alto LLC, priority 2008, dated 2013).

Key:
[1] = target: Btk enzyme (His-tagged, full-length) (Homo sapiens (Human), UniProt Q06187); test: Bruton's Tyrosine Kinase (Btk) Inhibition Assay; type: biochemical; details: 33P filtration capture assay, 100 μM ATP, 30 μM biotinylated peptide substrate
Text: The assay is a capture of radioactive ^33P phosphorylated product through filtration. The interactions of Btk, biotinylated SH2 peptide substrate (Src homology), and ATP lead to phosphorylation of the peptide substrate. Biotinylated product is bound streptavidin sepharose beads. All bound, radiolabeled products are detected by scintillation counter.
Plates assayed are 96-well polypropylene (Greiner) and 96-well 1.2 μm hydrophilic PVDF filter plates (Millipore). Concentrations reported here are final assay concentrations: 10-100 μM compounds in DMSO (Burdick and Jackson), 5-10 nM Btk enzyme (His-tagged, full-length), 30 μM peptide substrate (Biotin-Aca-[…]-NH2), 100 μM ATP (Sigma), 8 mM imidazole (Sigma, pH 7.2), 8 mM glycerol-2-phosphate (Sigma), 200 μM EGTA (Roche Diagnostics), 1 mM MnCl2 (Sigma), 20 mM MgCl2 (Sigma), 0.1 mg/ml BSA (Sigma), 2 mM DTT (Sigma), 1 μCi ^33P ATP (Amersham), 20% streptavidin sepharose beads (Amersham), 50 mM EDTA (Gibco), 2 M NaCl (Gibco), 2 M NaCl w/1% phosphoric acid (Gibco), microscint-20 (Perkin Elmer).
IC50 determinations are calculated from 10 data points per compound utilizing data produced from a standard 96-well plate assay template. One control compound and seven unknown inhibitors were tested on each plate and each plate was run twice. Typically, compounds were diluted in half-log starting at 100 μM and ending at 3 nM. The control compound was staurosporine. Background was counted in the absence of peptide substrate. Total activity was determined in the presence of peptide substrate. The following protocol was used to determine Btk inhibition.
1) Sample preparation: The test compounds were diluted at half-log increments in assay buffer (imidazole, glycerol-2-phosphate, EGTA, MnCl2, MgCl2, BSA).
a.) rinse beads by centrifuging at 500 g
b.) reconstitute the beads with PBS and EDTA to produce a 20% bead slurry
3) Pre-incubate reaction mix without substrate (assay buffer, DTT, ATP, ^33P ATP) and mix with substrate (assay buffer, DTT, ATP, ^33P ATP, peptide substrate) 30° C. for 15 min.
4) To start assay, pre-incubate 10 μL Btk in enzyme buffer (imidazole, glycerol-2-phosphate, BSA) and 10 μL of test compounds for 10 min at RT.
5) Add 30 μL reaction mixture without or with substrate to Btk and compounds.
6) Incubate 50 μL total assay mix for 30 min at 30° C.
7) Transfer 40 μL of assay to 150 μL bead slurry in filter plate to stop reaction.
8) Wash filter plate after 30 min, with following steps
b. 3×250 μL NaCl containing 1% phosphoric acid
9) Dry plate for 1 h at 65° C. or overnight at RT
10) Add 50 μL microscint-20 and count ^33P cpm on scintillation counter. […]

Btk enzyme (His-tagged, full-length), sequence (Q06187 whole entry): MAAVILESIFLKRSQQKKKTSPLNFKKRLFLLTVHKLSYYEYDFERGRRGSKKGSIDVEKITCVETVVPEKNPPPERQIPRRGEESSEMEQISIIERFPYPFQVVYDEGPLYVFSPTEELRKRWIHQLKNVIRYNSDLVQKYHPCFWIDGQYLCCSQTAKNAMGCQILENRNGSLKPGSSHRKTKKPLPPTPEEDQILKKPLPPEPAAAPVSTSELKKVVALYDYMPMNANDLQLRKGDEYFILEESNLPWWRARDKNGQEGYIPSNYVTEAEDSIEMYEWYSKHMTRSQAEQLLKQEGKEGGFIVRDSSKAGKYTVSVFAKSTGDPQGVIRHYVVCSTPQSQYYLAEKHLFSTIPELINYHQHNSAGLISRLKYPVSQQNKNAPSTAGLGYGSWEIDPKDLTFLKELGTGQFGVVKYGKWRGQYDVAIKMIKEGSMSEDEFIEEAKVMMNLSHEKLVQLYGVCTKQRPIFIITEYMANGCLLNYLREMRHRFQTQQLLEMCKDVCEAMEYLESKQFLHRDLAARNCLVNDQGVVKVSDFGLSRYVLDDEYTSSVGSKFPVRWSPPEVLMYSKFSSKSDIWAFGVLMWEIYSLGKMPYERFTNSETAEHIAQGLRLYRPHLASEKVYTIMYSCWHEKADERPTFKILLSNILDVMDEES

Row | Compound | IC50 [1] | melting point
1 | CNC(=O)Nc1cc(-c2cccc(-n3cnc4cc(C(C)(C)C)ccc4c3=O)c2C)cn(C)c1=O [Compound I-1, 1-{5-[3-(7-tert-Butyl-4-oxo-4H-quinazolin-3-yl)-2-methyl-phenyl]-1-methyl-2-oxo-1,2-dihydro-pyridin-3-yl}-3-methyl urea] | 112 nM | –
2 | Cc1c(-c2cc(Nc3ccc(C(=O)N4CCOCC4)cn3)c(=O)n(C)c2)cccc1N1CNc2cc(N(C)C)ccc2C1=O [II-1, 7-Dimethylamino-3-(2-methyl-3-{1-methyl-5-[5-(morpholin-4-carbonyl)-pyridin-2-ylamino]-6-oxo-1,6-dihydro-pyridin-3-yl}-phenyl)-2,3-dihydro-1H-quinazolin-4-one] | 22 nM | 247.1 to 250.9 °C
3 | CNC(=O)Nc1cc(-c2cccc(N3CNc4cc(N(C)C)ccc4C3=O)c2C)cn(C)c1=O [II-2, 1-{5-[3-(7-Dimethylamino-4-oxo-1,4-dihydro-2H-quinazolin-3-yl)-2-methyl-phenyl]-1-methyl-2-oxo-1,2-dihydro-pyridin-3-yl}-3-methyl-urea] | – | 218.5 to 223.8 °C
4 | Cc1c(-c2cc(Nc3ccc(C(=O)N4CCOCC4)cn3)c(=O)n(C)c2)cccc1N1CNc2cc(C(C)(C)O)ccc2C1=O [II-3, 7-(1-Hydroxy-1-methyl-ethyl)-3-(2-methyl-3-{1-methyl-5-[5-(morpholine-4-carbonyl)-pyridin-2-ylamino]-6-oxo-1,6-dihydro-pyridin-3-yl}-phenyl)-2,3-dihydro-1H-quinazolin-4-one] | 18 nM | 196 to 197 °C
5 | Cc1c(-c2cc(Nc3ccc(C(=O)N4CCOCC4)cn3)c(=O)n(C)c2)cccc1-n1ncc2cc(N(C)C)ccc2c1=O [III-1, 6-Dimethylamino-2-(2-methyl-3-{1-methyl-5-[5-(morpholine-4-carbonyl)-pyridin-2-ylamino]-6-oxo-1,6-dihydro-pyridin-3-yl}-phenyl)-2H-phthalazin-1-one] | 124 nM | –
